The record followed here is ChEMBL document CHEMBL4393673, “Design, synthesis and biological evaluation of pyridine-chalcone derivatives as novel microtubule-destabilizing agents” (Eur J Med Chem, 2019).

Series [1] in a line: Toxicity in ICR mouse allografted with mouse H22 cells assessed as body weight loss at 6 mg/kg, iv administered once per 2 days for 21 days. It counts as organism-based. The conditions noted are these: in vivo.
Series [2] concerns H22. The series can be described thus: Antitumor activity against mouse H22 cells allografted in ICR mouse assessed as reduction in tumour weight at 6 mg/kg, iv administered once per 2 days for 21 days relative to control. It counts as functional.
The next series relates to L02. The series is described as follows: cells. The conditions noted are these: Homo sapiens, L02, 72 h.
Series [3] is described as follows: Antiproliferative activity against […] cells assessed as reduction in cell viability after 72 hrs by MTT assay. The class given is functional, cell-based. The conditions noted are these: H22, 72 h. On the technique in general: Tetrazolium assays rely on reduction of a dye to a coloured formazan, in cell work by metabolically active cells.
For series [4], the target named is T1, Tubulin (Sus scrofa) (UniProt P02554+P02550). The series is described as follows: Inhibition of [3H]colchicine binding to biotinylated porcine tubulin at 5 uM in presence of GTP after 2 hrs by scintillation proximity assay relative to control. It counts as protein assay.
T1 sequence (P02550 whole entry, looked up): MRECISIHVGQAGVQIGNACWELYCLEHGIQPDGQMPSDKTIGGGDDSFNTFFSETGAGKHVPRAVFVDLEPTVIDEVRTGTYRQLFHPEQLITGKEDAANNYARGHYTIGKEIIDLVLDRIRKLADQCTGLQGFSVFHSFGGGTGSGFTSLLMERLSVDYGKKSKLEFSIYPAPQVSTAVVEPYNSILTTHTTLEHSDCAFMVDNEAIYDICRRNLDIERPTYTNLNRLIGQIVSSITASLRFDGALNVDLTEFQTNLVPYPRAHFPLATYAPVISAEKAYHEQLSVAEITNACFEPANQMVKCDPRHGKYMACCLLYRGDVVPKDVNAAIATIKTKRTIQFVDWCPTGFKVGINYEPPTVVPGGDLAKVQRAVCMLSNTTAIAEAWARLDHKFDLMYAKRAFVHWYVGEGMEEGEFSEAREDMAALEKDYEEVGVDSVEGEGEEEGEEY
T1 sequence (P02554 whole entry, looked up): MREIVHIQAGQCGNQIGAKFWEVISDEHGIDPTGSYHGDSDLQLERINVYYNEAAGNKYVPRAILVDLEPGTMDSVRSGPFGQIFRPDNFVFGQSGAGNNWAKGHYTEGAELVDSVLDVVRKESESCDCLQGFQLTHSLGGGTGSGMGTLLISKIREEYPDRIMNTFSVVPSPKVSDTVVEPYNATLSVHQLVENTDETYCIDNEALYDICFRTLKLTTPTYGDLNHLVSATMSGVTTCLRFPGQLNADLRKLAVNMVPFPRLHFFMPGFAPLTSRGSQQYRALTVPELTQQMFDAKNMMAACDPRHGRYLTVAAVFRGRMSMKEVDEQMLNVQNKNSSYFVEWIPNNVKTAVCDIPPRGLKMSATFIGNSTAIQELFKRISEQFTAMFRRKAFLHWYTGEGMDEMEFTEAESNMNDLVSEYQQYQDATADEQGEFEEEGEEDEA
The subject of the next series is K562. The series can be described thus: Antiproliferative activity against human K562 cells assessed as reduction in cell viability after 72 hrs by MTT assay. The class given is functional, cell-based. The conditions noted are these: K562, 72 h.
For series [5], the target named is T1, Tubulin (Sus scrofa). The series can be described thus: Inhibition of [3H]colchicine binding to biotinylated porcine tubulin at 1 uM in presence of GTP after 2 hrs by scintillation proximity assay relative to control. It counts as protein assay.
The next series addresses Tubulin. The series can be described thus: Inhibition of tubulin polymerization (unknown origin) in presence of GTP measured after 60 mins by spectrophotometric method. It counts as protein-complex assay, Homo sapiens.
The test system of a further series is KB. The series is described as follows: Antiproliferative activity against human KB cells assessed as reduction in cell viability after 72 hrs by MTT assay. It counts as functional, cell-based.
Another series deals with HCT-8. The series can be described thus: Antiproliferative activity against human HCT8 cells assessed as reduction in cell viability after 72 hrs by MTT assay. The class given is functional, cell-based. To be noted: HCT-8, 72 h.
In series [6] the test system is H22. The series can be described thus: Antitumor activity against mouse H22 cells allografted in ICR mouse assessed as reduction in tumour weight at 20 mg/kg, iv administered once per day for 21 days relative to control. It counts as functional. To be noted: 504 h.
The next series deals with MDA-MB-231. The series can be described thus: cells. The conditions noted are these: Homo sapiens, MDA-MB-231, 72 h.
The target of series [7] is T2, Tubulin (Homo sapiens) (UniProt P68371+Q9H4B7+P0DPH7+P68366+Q13509+Q71U36+P04350+Q3ZCM7+P07437+P68363+Q9BQE3+Q6PEY2+Q13885+Q9BVA1+Q9BUF5). The series is described as follows: Inhibition of tubulin polymerization in human K562 cells assessed as disruption of cytosolic microtubule networks after 24 hrs by DAPI staining based immunofluorescence microscopic method. It counts as cell-based.

The target of series [8] is T2, Tubulin (Homo sapiens). The series is described as follows: Inhibition of tubulin polymerization in human MDA-MB-231 cells assessed as disruption of cytosolic microtubule networks after 24 hrs by DAPI staining based immunofluorescence microscopic method. It counts as cell-based.

Description for L02: Cytotoxicity against human LO2 cells assessed as reduction in cell viability after 72 hrs by MTT assay
Description for MDA-MB-231: Antiproliferative activity against human MDA-MB-231 cells assessed as reduction in cell viability after 72 hrs by MTT assay

In general, inhibition in vivo refers to the change of the read-out against control, counted positive when it falls. Regarding `CC(=O)O[C@H]1C(=O)[C@@]2(C)[C@H]([C@H](OC(=O)c3ccccc3)[C@]3(O)C[C@H](OC(=O)[C@H](O)[C@@H](NC(=O)c4ccccc4)c4ccccc4)C(C)=C1C3(C)C)[C@]1(OC(C)=O)CO[C@@H]1C[C@@H]2O` [PACLITAXEL], the Activity entry in series [1] is reported as “Toxic”. Besides, the inhibition in vivo at 6 mg/kg in the series on H22 [2] amounted to 72.7%.
One may read the IC50 as the concentration needed to halve the response being measured. What is called inhibition is how much of the control response was suppressed. In the case of `COc1ccc(/C=C/C(=O)c2cc(OC)c(OC)c(OC)c2)cc1O`, the IC50 was determined as 421 nM in the series with L02, 132 nM in [3], 68 nM with K562 and 3050 nM on Tubulin. The figures for the inhibition on Tubulin (Sus scrofa) [4] and at Tubulin (Sus scrofa) [5] were 78.3% and 70.2%, respectively.
As for `COc1ccc(/C=C\c2cc(OC)c(OC)c(OC)c2)cc1O` [COMBRETASTATIN A4], the IC50 is 8 nM in series [3], 11 nM in the series on KB, 10 nM in the series with HCT-8 and 10 nM in the series with MDA-MB-231. Further, in the series with H22 [6], the inhibition in vivo at 20 mg/kg is 50.9%.
Turning to `COc1ccc(/C=C\c2cc(OC)c(OC)c(OC)c2)cc1OP(=O)(O)O` [FOSBRETABULIN DISODIUM], the inhibition in vivo at 20 mg/kg in the series on H22 [6] is 62.7%.
As for `COc1cc(C(=O)/C(C)=C/c2ccc(OC)c(O)c2)cc(OC)n1`, the inhibition at Tubulin (Sus scrofa) [4] is 87.9%; on Tubulin (Sus scrofa) [5], 75.1%. The Activity entry at Tubulin (Homo sapiens) [7] and on Tubulin (Homo sapiens) [8] was “Dose-dependent effect” each time. For the same molecule, the half-inhibitory concentration (IC50) on Tubulin is 2080 nM.
